Assay results as given in patent US9777000B2, “Pyrazole derivative” (MOCHIDA PHARMACEUTICAL CO., LTD., priority 2013, dated 2017).

target: human PDE10 (Homo sapiens (Human), UniProt Q9Y233); test: Evaluation of enzyme inhibitory activity: human PDE10 inhibitory effect (IMAP TR-FRET); format: biochemical; conditions: cAMP substrate
Description: (Evaluation of Enzyme Inhibitory Activity: Human PDE10 Inhibitory Effect)
IMAP TR-FRET Phosphodiersterase Evaluation Assay Kit (Molecular Device) was used for the measurement. Ten μL of a diluted test compound having each concentration and 5 μL of the enzyme PDE10 (BPA Bioscience) that had been diluted to 2 ng/mL with 1×IMAP Reaction Buffer (prepared with 5×included with the kit, 10 mM Tris-HCl, pH=7.2, 10 mM MgCl2, 0.05% NaN3, and 0.1% BSA) containing 0.1% BSA were added to a 384-well plate (Corning). The obtained mixture was then pre-incubated at room temperature for 5 minutes. Thereafter, 5 μL of cAMP substrate solution which was included with the kit and diluted to 400 nM with 1×IMAP Reaction Buffer containing 0.1% BSA, was added to the reaction solution, and the obtained mixture was reacted at room temperature for 60 minutes. Thereafter, 60 μL of an IMAP TR-FRET Binding solution included with the kit was further added to the reaction solution, and the obtained mixture was then left for 3 hours or more. Subsequently, using ARVO SX (PerkinElmer), the fluorescent intensity of Terbium (Emission=490 nm) and TR-FRET (Emission=520 nm) in the reaction solution were measured at an excitation wavelength of 340 nm, so as to calculate the amount of the generated 5′-AMP. The count of a well to which a solvent had been added instead of the test compound was set at 0%, and the count of a well to which the enzyme PDE10 had not been added was set at 100%. Thus, the inhibitory activity of each test compound was calculated.
The PDE10 inhibitory activity of the test compound was indicated with an IC50 value. […] The test compounds are shown in Table 3 (Table 3-1 and Table 3-2).

Chain of human PDE10 (Q9Y233 whole entry): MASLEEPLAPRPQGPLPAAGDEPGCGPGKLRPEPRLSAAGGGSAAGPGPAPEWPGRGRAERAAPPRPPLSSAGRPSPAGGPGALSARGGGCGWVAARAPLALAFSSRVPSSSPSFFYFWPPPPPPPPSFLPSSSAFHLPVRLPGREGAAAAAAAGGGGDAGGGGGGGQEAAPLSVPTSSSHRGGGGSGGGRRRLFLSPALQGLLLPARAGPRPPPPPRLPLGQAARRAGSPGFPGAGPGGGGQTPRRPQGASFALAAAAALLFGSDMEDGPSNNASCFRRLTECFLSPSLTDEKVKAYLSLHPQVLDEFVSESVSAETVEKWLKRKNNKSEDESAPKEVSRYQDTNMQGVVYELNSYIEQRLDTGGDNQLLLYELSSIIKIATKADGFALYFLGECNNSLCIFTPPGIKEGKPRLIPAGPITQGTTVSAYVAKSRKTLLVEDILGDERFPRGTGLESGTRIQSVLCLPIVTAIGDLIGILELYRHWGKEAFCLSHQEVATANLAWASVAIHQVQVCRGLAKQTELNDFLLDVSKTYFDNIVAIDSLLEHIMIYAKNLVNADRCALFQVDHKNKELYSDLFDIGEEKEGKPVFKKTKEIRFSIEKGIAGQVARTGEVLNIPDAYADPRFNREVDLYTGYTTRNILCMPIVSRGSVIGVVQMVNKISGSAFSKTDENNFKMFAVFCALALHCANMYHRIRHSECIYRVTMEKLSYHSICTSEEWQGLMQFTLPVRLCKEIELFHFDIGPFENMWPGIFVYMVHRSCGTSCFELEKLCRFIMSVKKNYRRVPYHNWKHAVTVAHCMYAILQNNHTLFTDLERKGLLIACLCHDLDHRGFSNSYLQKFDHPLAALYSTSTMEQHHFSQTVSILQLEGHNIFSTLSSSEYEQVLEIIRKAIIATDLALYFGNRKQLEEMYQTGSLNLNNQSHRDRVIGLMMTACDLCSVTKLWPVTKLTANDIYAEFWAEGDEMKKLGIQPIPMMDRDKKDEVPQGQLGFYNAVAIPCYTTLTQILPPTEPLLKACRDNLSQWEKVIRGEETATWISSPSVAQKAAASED

IC50, < 5 nM:
Cc1cc(C)nc(-c2cnn(C)c2C(=O)Nc2cc3nc(-c4ccccc4)nn3cc2F)n1 [Example 3.44, 4-(4,6-dimethylpyrimidin-2-yl)-N-(6-fluoro-2-phenyl-[1,2,4]triazolo[1,5-a]pyridin-7-yl)-1-methyl-1H-pyrazole-5-carboxamide]
Cn1ncc(-c2nc(C(F)(F)F)cs2)c1C(=O)NC1CCn2cc(-c3ccc(F)cc3)nc2C1 (stereo not shown) [Example 2.29, N-(2-(4-fluorophenyl)-5,6,7,8-tetrahydroimidazo[1,2-a]pyridin-7-yl)-1-methyl-4-(4-(trifluoromethyl)thiazol-2-yl)-1H-pyrazole-5-carboxamide]
Cc1ccnc(-c2cnn(C)c2C(=O)Nc2cc3nc(-c4ccccc4)nn3cc2F)n1 [Example 3.43, N-(6-fluoro-2-phenyl-[1,2,4]triazolo[1,5-a]pyridin-7-yl)-1-methyl-4-(4-methylpyrimidin-2-yl)-1H-pyrazole-5-carboxamide]
Cn1ncc(-c2nc(C(F)F)c(Cl)s2)c1C(=O)NC1CCn2cc(-c3ccccc3)nc2C1 (stereo not shown) [Example 2.5, 4-(5-chloro-4-(difluoromethyl)thiazol-2-yl)-1-methyl-N-(2-phenyl-5,6,7,8-tetrahydroimidazo[1,2-a]pyridin-7-yl)-1H-pyrazole-5-carboxamide]
Cn1ncc(-c2nc(C(F)(F)F)cs2)c1C(=O)Nc1ccn2nc(N3CC[C@@H](F)C3)nc2c1 [Example 4.13, (R)-N-(2-(3-fluoropyrrolidin-1-yl)-[1,2,4]triazolo[1,5-a]pyridin-7-yl)-1-methyl-4-(4-(trifluoromethyl)thiazol-2-yl)-1H-pyrazole-5-carboxamide]
Cc1ccnnc1-c1cnn(C)c1C(=O)Nc1cc2nc(-c3ccccc3)nn2cc1F [Example 3.24, N-(6-fluoro-2-phenyl-[1,2,4]triazolo[1,5-a]pyridin-7-yl)-1-methyl-4-(4-methylpyridazin-3-yl)-1H-pyrazole-5-carboxamide]
Cc1cc(C)nc(-c2cnn(C)c2C(=O)Nc2cc3nc(-c4ccc(F)cc4)nn3cc2F)c1 [Example 3.54, 4-(4,6-dimethylpyridin-2-yl)-N-(6-fluoro-2-(4-fluorophenyl)-[1,2,4]triazolo[1,5-a]pyridin-7-yl)-1-methyl-1H-pyrazole-5-carboxamide]
CCc1csc(-c2cnn(C)c2C(=O)Nc2ccn3nc(-c4ccccc4)nc3c2)n1 [Example 3.18, 4-(4-ethylthiazol-2-yl)-1-methyl-N-(2-phenyl-[1,2,4]triazolo[1,5-a]pyridin-7-yl)-1H-pyrazole-5-carboxamide]
Cn1ncc(-c2nc(C(F)F)c(Cl)s2)c1C(=O)NC1CCn2nc(-c3ccccc3)nc2C1 (stereo not shown) [Example 5.29, 4-(5-chloro-4-(difluoromethyl)thiazol-2-yl)-1-methyl-N-(2-phenyl-5,6,7,8-tetrahydro-[1,2,4]triazolo[1,5-a]pyridin-7-yl)-1H-pyrazole-5-carboxamide]
Cn1ncc(-c2cccnn2)c1C(=O)Nc1cc2nc(-c3ccccc3)nn2cc1F [Example 3.47, N-(6-fluoro-2-phenyl-[1,2,4]triazolo[1,5-a]pyridin-7-yl)-1-methyl-4-(pyridazin-3-yl)-1H-pyrazole-5-carboxamide]
Cc1ncnc(-c2cnn(C)c2C(=O)Nc2cc3nc(-c4ccccc4)nn3cc2F)c1C [Example 3.35, 4-(5,6-dimethylpyrimidin-4-yl)-N-(6-fluoro-2-phenyl-[1,2,4]triazolo[1,5-a]pyridin-7-yl)-1-methyl-1H-pyrazole-5-carboxamide]
Cn1ncc(-c2nc(C(F)F)cs2)c1C(=O)Nc1ccn2nc(N3CC[C@H](F)C3)nc2c1 [Example 4.15, (S)-4-(4-(difluoromethyl)thiazol-2-yl)-N-(2-(3-fluoropyrrolidin-1-yl)-[1,2,4]triazolo[1,5-a]pyridin-7-yl)-1-methyl-1H-pyrazole-5-carboxamide]
Cc1cncc(-c2cnn(C)c2C(=O)Nc2ccn3nc(N4CCCC4)nc3c2)n1 [Example 4.29, 1-methyl-4-(6-methylpyrazin-2-yl)-N-(2-(pyrrolidin-1-yl)-[1,2,4]triazolo[1,5-a]pyridin-7-yl)-1H-pyrazole-5-carboxamide]
Cc1ccnc(-c2cnn(C)c2C(=O)NC2CCn3cc(-c4ccccc4)nc3C2)c1 (stereo not shown) [Example 2.22, 1-methyl-4-(4-methylpyridin-2-yl)-N-(2-phenyl-5,6,7,8-tetrahydroimidazo[1,2-a]pyridin-7-yl)-1H-pyrazole-5-carboxamide]
Cc1cncc(-c2cnn(C)c2C(=O)Nc2ccn3nc(N4CC[C@H](F)C4)nc3c2)n1 [Example 4.19, (S)-N-(2-(3-fluoropyrrolidin-1-yl)-[1,2,4]triazolo[1,5-a]pyridin-7-yl)-1-methyl-4-(6-methylpyrazin-2-yl)-1H-pyrazole-5-carboxamide]
Cn1cnc(-c2cnn(C)c2C(=O)Nc2cc3nc(-c4ccccc4)nn3cc2F)c1 [Example 3.48, N-(6-fluoro-2-phenyl-[1,2,4]triazolo[1,5-a]pyridin-7-yl)-1-methyl-4-(1-methyl-1H-imidazol-4-yl)-1H-pyrazole-5-carboxamide]
Cn1ncc(-c2cccc(C(F)(F)F)n2)c1C(=O)Nc1ccn2nc(N3CCCC3)nc2c1 [Example 4.27, 1-methyl-N-(2-(pyrrolidin-1-yl)-[1,2,4]triazolo[1,5-a]pyridin-7-yl)-4-(6-(trifluoromethyl)pyridin-2-yl)-1H-pyrazole-5-carboxamide]
Cc1nc(C)c(C)c(-c2cnn(C)c2C(=O)Nc2cc3nc(-c4ccccc4)nn3cc2F)n1 [Example 3.37, N-(6-fluoro-2-phenyl-[1,2,4]triazolo[1,5-a]pyridin-7-yl)-1-methyl-4-(2,5,6-trimethylpyrimidin-4-yl)-1H-pyrazole-5-carboxamide]
Cc1cnnc(-c2cnn(C)c2C(=O)Nc2cc3nc(-c4ccccc4)nn3cc2F)c1 [Example 3.46, N-(6-fluoro-2-phenyl-[1,2,4]triazolo[1,5-a]pyridin-7-yl)-1-methyl-4-(5-methylpyridazin-3-yl)-1H-pyrazole-5-carboxamide]
Cc1cncc(-c2cnn(C)c2C(=O)Nc2ccn3nc(N4CCC[C@@H]4C)nc3c2)n1 [Example 4.6, (S)-1-methyl-4-(6-methylpyrazin-2-yl)-N-(2-(2-methylpyrrolidin-1-yl)-[1,2,4]triazolo[1,5-a]pyridin-7-yl)-1H-pyrazole-5-carboxamide]
Cn1ncc(-c2cccc(C(F)(F)F)n2)c1C(=O)Nc1ccn2nc(N3CC[C@H](F)C3)nc2c1 [Example 4.16, (S)-N-(2-(3-fluoropyrrolidin-1-yl)-[1,2,4]triazolo[1,5-a]pyridin-7-yl)-1-methyl-4-(6-(trifluoromethyl)pyridin-2-yl)-1H-pyrazole-5-carboxamide]
COc1cccnc1-c1cnn(C)c1C(=O)Nc1cc2nc(-c3ccccc3)nn2cc1F [Example 3.7, N-(6-fluoro-2-phenyl-[1,2,4]triazolo[1,5-a]pyridin-7-yl)-4-(3-methoxypyridin-2-yl)-1-methyl-1H-pyrazole-5-carboxamide]
Cc1nccc(-c2cnn(C)c2C(=O)Nc2cc3nc(-c4ccccc4)nn3cc2F)n1 [Example 3.25, N-(6-fluoro-2-phenyl-[1,2,4]triazolo[1,5-a]pyridin-7-yl)-1-methyl-4-(2-methylpyrimidin-4-yl)-1H-pyrazole-5-carboxamide]
Cn1ncc(-c2nc(C(F)(F)F)cs2)c1C(=O)Nc1ccn2nc(N3CC[C@H](F)C3)nc2c1 [Example 4.22, (S)-N-(2-(3-fluoropyrrolidin-1-yl)-[1,2,4]triazolo[1,5-a]pyridin-7-yl)-1-methyl-4-(4-(trifluoromethyl)thiazol-2-yl)-1H-pyrazole-5-carboxamide]
Cn1ncc(-c2nc(C(F)F)c(Cl)s2)c1C(=O)Nc1ccn2nc(N3CCCC3)nc2c1 [Example 4.26, 4-(5-chloro-4-(difluoromethyl)thiazol-2-yl)-1-methyl-N-(2-(pyrrolidin-1-yl)-[1,2,4]triazolo[1,5-a]pyridin-7-yl)-1H-pyrazole-5-carboxamide]
Cn1ncc(-c2nc(C(F)F)cs2)c1C(=O)Nc1ccn2nc(-c3cccc(F)c3)nc2c1 [Example 3.17, 4-(4-(difluoromethyl)thiazol-2-yl)-N-(2-(3-fluorophenyl)-[1,2,4]triazolo[1,5-a]pyridin-7-yl)-1-methyl-1H-pyrazole-5-carboxamide]
Cc1sc(-c2cnn(C)c2C(=O)Nc2ccn3cc(-c4ccccc4)nc3c2)nc1C(F)F [Example 1.4, 4-(4-(difluoromethyl)-5-methylthiazol-2-yl)-1-methyl-N-(2-phenylimidazo[1,2-a]pyridin-7-yl)-1H-pyrazole-5-carboxamide]
Cn1ncc(-c2nc(C(F)(F)F)cs2)c1C(=O)NC1CCn2cc(-c3ccccc3)nc2C1 (stereo not shown) [Example 2.3, 1-methyl-N-(2-phenyl-5,6,7,8-tetrahydroimidazo[1,2-a]pyridin-7-yl)-4-(4-(trifluoromethyl)thiazol-2-yl)-1H-pyrazole-5-carboxamide]
